Experimental data: PMC5769417, “Single- and Multiple-Dose Trials to Determine the Pharmacokinetics, Safety, Tolerability, and Sex Effect of Oral Ginsenoside Compound K in Healthy Chinese Volunteers” (Frontiers in Pharmacology, 2018)
Read-outs that look alike come from different tables or passages of the source.

What was measured:
beagle dogs = settings: cited from earlier work
Sprague Dawley (SD) rats = settings: cited from earlier work
[1] = Single-dose trial, plasma pharmacokinetics; type: in vivo, human; settings: for Tmax / half-life / AUC(0-inf) / AUC(0-t) / MRT inf / MRT last / Cmax: both sexes, human, plasma; for Cmax: read-out: Cmax
Procedure: Single-dose pharmacokinetics: The single-dose trial was performed first. […] Drinking before and after medication was prohibited for 2 h, but the amount and time of drinking were not strictly controlled at other times. All subjects had standard lunch and dinner (unified light diet) after medication 4 and 10 h. Single-dose pharmacokinetics: […] We preserved 8 ml specimens into 10 ml centrifuge tubes and stored at −70°C for PK assessment. All samples were preserved at −70°C and analyzed with a LC-MS/MS (API 4000 LC-MS/MS, ABI Company, Foster City, CA, USA) at the Institute of Clinical Pharmacology, Central South University (Changsha, China). […] An aqueous solution of a stable internal standard (IS for CK: digoxin, Shijiaoke Biological Technology Co. Ltd., Beijing, China; IS for PPD: coumarin, Sigma-Aldrich, St. Louis, USA) and 1 M phosphate buffer were added to 0.5 ml of thawed sample, and analytical standards and quality control (QC) samples were prepared in the same matrix. All samples were treated with 2 ml of methyl tert-butyl ether (MTBE, CNW technologies GmbH, Duesseldorf, Germany) to precipitate the bulk of plasma proteins. After mechanical shock by mixing for 10 min and a subsequent centrifugation (4,000 rpm, 4°C, 10 min), 1.4 ml of the supernatant was transferred and blow-dried with nitrogen in a water bath at 40°C. Lastly, the residue was dissolved in 100 μl of mobile phase and then was subjected to a mechanical shock by mixing, and centrifuged. The supernatant was subsequently injected into the column for analysis. […] Accuracy and precision of the assay were determined by evaluating the performance of the assay controls. Over the quantification range, the accuracy of the QC samples varied from 85 to 115% and the intra- and inter-assay imprecision was <15%. PK parameters were derived according to noncompartmental analysis and actual elapsed time from dosing by WinNonlin version 6.1 (Pharsight Corporation, Mountain View, CA, USA). […] The area under the curve (AUC) from time zero to the last time point (AUClast) and the AUC extrapolated to infinity (AUCinf) were calculated using the linear trapezoidal rule. The slope (elimination rate constant, K) of the terminal phase of the plasma concentration-time profile was determined, using a weighting factor of 1, by the method of least squares (log-linear regression of at least three data points). The t1/2 was estimated as (ln2)/K. […] The apparent volume of distribution (V/F) was equal to (CL/F)/K. The mean residence time (MRT) was calculated as the area under the first moments curve (AUMC) divided by AUC. The dose-normalized PK parameters e.g., Cmax/D and AUClast/D, were obtained by dividing each PK result by the administered dose. The cumulative excretion rate was calculated as the amount of unchanged drug in the urine over a time interval divided by the dose and was expressed as thousand points (‰).

[2] = single-dose trial, 25 mg oral, fasting
[3] = single-dose trial, 50 mg oral, fasting
[4] = single-dose trial, 100 mg oral, fasting
[5] = single-dose trial, 200 mg oral, fasting
[6] = single-dose trial, 400 mg oral, fasting
[7] = single-dose trial, 600 mg oral, fasting
[8] = single-dose trial, 800 mg oral, fasting

For `CC(C)=CCC[C@](C)(OC1O[C@H](CO)[C@@H](O)[C@H](O)[C@H]1O)[C@H]1CC[C@]2(C)[C@@H]1[C@H](O)C[C@@H]1[C@@]3(C)CC[C@H](O)C(C)(C)[C@@H]3CC[C@]12C` (stereo partly drawn) [CK, 20-O-beta-D-glucopyranosyl-20(S)-protopanaxadiol], the “No observed adverse effect level (NOAEL)” value (beagle dogs) is listed as 7.5 mg/kg, the “dose at which diarrhea symptom occurred” value (beagle dogs; long-term toxicity test) is listed as 75 mg/kg and the “dose at which diarrhea symptom occurred” value (Sprague Dawley (SD) rats; long-term toxicity test, Sprague Dawley (SD) rats) is listed as 150 mg/kg. For the same compound, the “No observed adverse effect level (NOAEL)” value (Sprague Dawley (SD) rats; rats) was 25.0 mg/kg, the Tmax ([1]; oral, both trials, all doses, read-out: range of time to maximum concentration (Tmax)) was 1.5 to 6 h and the Tmax ([1]; oral, medians, both trials, read-out: Tmax in this study) was 2.5 to 3.8 h. For the same compound, the half-life ([1]; oral, single-dose trial, 25–800 mg, read-out: mean t1/2 across the dose groups) was 13.5 to 26.2 h, the Tmax ([1]; oral, single-dose trial, 25–800 mg, read-out: median Tmax across the dose groups) was 2.5 to 3.3 h and the Tmax ([1]; po, 25 mg, single-dose trial, 25 mg oral, fasting, read-out: Tmax, median (range)) was 3 h. For the same compound, the Tmax ([1]; po, 50 mg, single-dose trial, 50 mg oral, fasting, read-out: Tmax, median (range)) was 3 h, the Tmax ([1]; po, 100 mg, single-dose trial, 100 mg oral, fasting, read-out: Tmax, median (range)) was 3 h and the Tmax ([1]; po, 200 mg, single-dose trial, 200 mg oral, fasting, read-out: Tmax, median (range)) was 3.3 h. The Tmax ([1]; po, 400 mg, single-dose trial, 400 mg oral, fasting, read-out: Tmax, median (range)) was 3 h, the AUC(0-inf) [1, 2] was 1.27 ± 0.276 µg·h/mL and the AUC(0-t) [1, 2] was 1.23 ± 0.267 µg·h/mL. The MRT inf [1, 2] was 10.9 ± 1.9 h, the MRT last [1, 2] was 8.9 ± 1.3 h and the Cmax [1, 2] was 0.175 ± 0.0351 µg/mL. It also gave a half-life ([1]; single-dose trial, 25 mg oral, fasting, read-out: t1/2 (converted)) of 13.5 ± 0.6 h, an AUC(0-inf) [1, 3] of 2.25 ± 0.861 µg·h/mL and an AUC(0-t) [1, 3] of 2.12 ± 0.77 µg·h/mL. The MRT inf [1, 3] was 12.5 ± 2.4 h, the MRT last [1, 3] was 9.1 ± 0.7 h and the Cmax [1, 3] was 0.3 ± 0.0985 µg/mL. It also gave a half-life ([1]; single-dose trial, 50 mg oral, fasting, read-out: t1/2 (converted)) of 15.9 ± 4.2 h, an AUC(0-inf) [1, 4] of 2.82 ± 1.44 µg·h/mL and an AUC(0-t) [1, 4] of 2.76 ± 1.42 µg·h/mL. It also gave an MRT inf [1, 4] of 13.7 ± 1 h, an MRT last [1, 4] of 11.4 ± 0.9 h and a Cmax [1, 4] of 0.351 ± 0.18 µg/mL. It also gave a half-life ([1]; single-dose trial, 100 mg oral, fasting, read-out: t1/2 (converted)) of 22.4 ± 3.3 h, an AUC(0-inf) [1, 5] of 6.09 ± 3.6 µg·h/mL and an AUC(0-t) [1, 5] of 5.96 ± 3.52 µg·h/mL. The MRT inf [1, 5] was 13.8 ± 1.6 h, the MRT last [1, 5] was 11.5 ± 1.4 h and the Cmax [1, 5] was 0.734 ± 0.408 µg/mL. For the same compound, the half-life ([1]; single-dose trial, 200 mg oral, fasting, read-out: t1/2 (converted)) was 21.6 ± 5.5 h, the AUC(0-inf) [1, 6] was 8.24 ± 2.05 µg·h/mL and the AUC(0-t) [1, 6] was 8.1 ± 2.02 µg·h/mL. For the same compound, the MRT inf [1, 6] was 14 ± 1.5 h, the MRT last [1, 6] was 11.9 ± 1.1 h and the Cmax [1, 6] was 1.03 ± 0.295 µg/mL. The half-life ([1]; single-dose trial, 400 mg oral, fasting, read-out: t1/2 (converted)) was 22.3 ± 4 h, the AUC(0-inf) [1, 7] was 9.28 ± 4.24 µg·h/mL and the AUC(0-t) [1, 7] was 9.09 ± 4.2 µg·h/mL. The MRT inf [1, 7] was 15.9 ± 2.8 h, the MRT last [1, 7] was 12.7 ± 0.9 h and the Cmax [1, 7] was 1.16 ± 0.466 µg/mL. For the same compound, the half-life ([1]; single-dose trial, 600 mg oral, fasting, read-out: t1/2 (converted)) was 26.2 ± 6.3 h, the AUC(0-inf) [1, 8] was 9.2 ± 4.18 µg·h/mL and the AUC(0-t) [1, 8] was 8.99 ± 4.1 µg·h/mL. It also gave an MRT inf [1, 8] of 14.7 ± 2.6 h, an MRT last [1, 8] of 12 ± 1.8 h and a Cmax [1, 8] of 1.18 ± 0.445 µg/mL. For the same compound, the half-life ([1]; single-dose trial, 800 mg oral, fasting, read-out: t1/2 (converted)) was 25.7 ± 3 h, the CL/F [1, 2] was 20.5 ± 4.7 l·h ^−1 and the V/F [1, 2] was 397 ± 86 L. The CL/F [1, 3] was 25.9 ± 11.2 l·h ^−1, the V/F [1, 3] was 559 ± 185 L and the CL/F [1, 4] was 44.5 ± 21.6 l·h ^−1. For the same compound, the V/F [1, 4] was 1381 ± 546 L, the CL/F [1, 5] was 47.7 ± 31.2 l·h ^−1 and the V/F [1, 5] was 1287 ± 563 L. For the same compound, the CL/F [1, 6] was 51.2 ± 12.3 l·h ^−1, the V/F [1, 6] was 1613 ± 379 L and the CL/F [1, 7] was 76.1 ± 32.1 l·h ^−1. For the same compound, the V/F [1, 7] was 3057 ± 2094 L, the CL/F [1, 8] was 106 ± 50.3 l·h ^−1 and the V/F [1, 8] was 3993 ± 2136 L.
